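Protocol summary: plate cells (96-well), add compound at 5 concentrations, incubate 48 h, interpolate endpoints linearly. Abbreviation: GI50, concentration required for 50% inhibition of growth.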 Active and inactive are the calls of the source. Rule as the data show it: active = GI50 up to about 1.1 µM and inactive = higher.
Tests used:
Assay in all cases: inhibition of tumour cell growth, NCI panel, 48 h
NCI-H460 = tested on: NCI-H460
SW-620 = tested on: SW-620
HCT-116 = tested on: HCT-116
A549 = tested on: A549
RXF 393 = tested on: RXF 393
EKVX = tested on: EKVX
Malme-3M = tested on: Malme-3M
HOP-92 = tested on: HOP-92
NCI-H23 = tested on: NCI-H23
OVCAR-3 = tested on: OVCAR-3
SK-MEL-28 = tested on: SK-MEL-28
SK-MEL-2 = tested on: SK-MEL-2
U-251 = tested on: U-251
T47D = tested on: T47D
PC-3 = tested on: PC-3
OVCAR-4 = tested on: OVCAR-4
Hs-578T = tested on: Hs-578T
MDA-N = tested on: MDA-N
MCF7 = tested on: MCF7

Compound | GI50 (NCI-H460) | GI50 (SW-620) | GI50 (HCT-116) | GI50 (A549) | GI50 (RXF 393) | GI50 (EKVX) | GI50 (Malme-3M) | GI50 (HOP-92) | GI50 (NCI-H23) | GI50 (OVCAR-3) | GI50 (SK-MEL-28) | GI50 (SK-MEL-2) | GI50 (U-251) | GI50 (T47D) | GI50 (PC-3) | GI50 (OVCAR-4) | GI50 (Hs-578T) | GI50 (MDA-N) | GI50 (MCF7)
Clc1cccc2c1OCC1C(c3ccccc3)=NN(c3ccccc3)C21 (stereo not given) | 59.4 µM (inactive) | > 100 µM (inactive) | 12.9 µM (inactive) | 66.2 µM (inactive) | > 100 µM (inactive) | 40.1 µM (inactive) | > 100 µM (inactive) | 64.4 µM (inactive) | > 100 µM (inactive) | > 100 µM (inactive) | > 100 µM (inactive) | > 100 µM (inactive) | 38.9 µM (inactive) | – | – | – | – | – | –
COC(C/C(=C/CO[Si](C(C)C)(C(C)C)C(C)C)C(=O)Nc1ccccc1I)OC | 25.5 µM (inactive) | 45.4 µM (inactive) | 8.97 µM (inactive) | 22.9 µM (inactive) | 2.39 µM (inactive) | – | 0.0676 µM (active) | 19 µM (inactive) | 32.9 µM (inactive) | 21.8 µM (inactive) | 59.4 µM (inactive) | 15.2 µM (inactive) | 28 µM (inactive) | 30.4 µM (inactive) | 18.9 µM (inactive) | 63.8 µM (inactive) | 29.6 µM (inactive) | 23.2 µM (inactive) | –
CCCCCCCCCCCCCCCCCCCCCC(=O)Nc1ccn(C2OC(CO)C(O)C2O)c(=O)n1 (stereo not given) | 2.32 µM (inactive) | > 57.4 µM (inactive) | 6.89 µM (inactive) | 4.68 µM (inactive) | > 100 µM (inactive) | > 100 µM (inactive) | > 42.4 µM (inactive) | > 40.8 µM (inactive) | 3.1 µM (inactive) | > 100 µM (inactive) | > 100 µM (inactive) | > 100 µM (inactive) | > 92.9 µM (inactive) | – | – | > 100 µM (inactive) | – | – | –
O=C(Cc1nc2c3c(ccc2nc1O)C(=O)c1ccccc1C3=O)C(=O)Nc1ccccc1[N+](=O)[O-] | 31.9 µM (inactive) | 12.3 µM (inactive) | 26.6 µM (inactive) | 49.4 µM (inactive) | – | 17.5 µM (inactive) | 19.1 µM (inactive) | 20.7 µM (inactive) | 18.5 µM (inactive) | 11.5 µM (inactive) | 16.1 µM (inactive) | 19.1 µM (inactive) | 17.7 µM (inactive) | – | – | 13.2 µM (inactive) | – | – | –
COc1cc(C(O)C(=O)c2cnc3cc([N+](=O)[O-])ccc3n2)ccc1O (stereo not given) | > 100 µM (inactive) | > 100 µM (inactive) | > 100 µM (inactive) | > 100 µM (inactive) | 64.1 µM (inactive) | 72.3 µM (inactive) | > 100 µM (inactive) | – | – | – | – | > 100 µM (inactive) | > 100 µM (inactive) | – | – | > 100 µM (inactive) | – | – | –
OCSc1nn(CO)c(=S)s1 | 23.8 µM (inactive) | 28.1 µM (inactive) | 24.2 µM (inactive) | 33.2 µM (inactive) | 16.9 µM (inactive) | 33.7 µM (inactive) | 22.5 µM (inactive) | 11.4 µM (inactive) | 20 µM (inactive) | 24 µM (inactive) | 21.7 µM (inactive) | 23 µM (inactive) | 23.8 µM (inactive) | 23.9 µM (inactive) | 24.4 µM (inactive) | 18.5 µM (inactive) | 14.3 µM (inactive) | – | 15.4 µM (inactive)
Cc1ccc(NC(=O)C(=O)CC(=O)C2CCOC2=O)c(C)c1 (stereo not given) | > 100 µM (inactive) | > 100 µM (inactive) | > 100 µM (inactive) | > 100 µM (inactive) | > 100 µM (inactive) | > 100 µM (inactive) | > 100 µM (inactive) | > 100 µM (inactive) | > 100 µM (inactive) | > 100 µM (inactive) | > 100 µM (inactive) | > 100 µM (inactive) | > 100 µM (inactive) | – | – | > 100 µM (inactive) | – | – | –
N#Cc1nc(-c2cccnc2)oc1N | > 100 µM (inactive) | > 100 µM (inactive) | > 100 µM (inactive) | – | > 100 µM (inactive) | > 100 µM (inactive) | > 100 µM (inactive) | > 100 µM (inactive) | – | > 100 µM (inactive) | > 100 µM (inactive) | > 100 µM (inactive) | > 100 µM (inactive) | – | > 100 µM (inactive) | > 100 µM (inactive) | > 100 µM (inactive) | – | –
COc1cc(/C=C\c2ccc(Cl)cc2)cc(OC)c1OC | 0.221 µM (active) | 0.0552 µM (active) | 0.0652 µM (active) | 0.196 µM (active) | 0.2 µM (active) | 0.439 µM (active) | 0.184 µM (active) | 0.326 µM (active) | 0.247 µM (active) | 0.102 µM (active) | 0.454 µM (active) | 0.245 µM (active) | 0.231 µM (active) | – | – | 5.74 µM (inactive) | – | – | –
C/C(=C1/N=C(c2cc([N+](=O)[O-])ccc2Cl)N(c2ccc(Br)cc2)C1=O)c1ccc(N(CCC#N)CCC#N)cc1C | 25.1 µM (inactive) | 12.7 µM (inactive) | 15.6 µM (inactive) | 22.5 µM (inactive) | 16.8 µM (inactive) | > 100 µM (inactive) | 77.8 µM (inactive) | 36.4 µM (inactive) | 42.7 µM (inactive) | 24.5 µM (inactive) | 49.5 µM (inactive) | 21.8 µM (inactive) | – | – | – | 38.8 µM (inactive) | – | – | –
CN(C)Cc1cc(C(=O)/C=C/c2ccc(Br)cc2)cc(CN(C)C)c1O | 7.16 µM (inactive) | 4.25 µM (inactive) | 6.14 µM (inactive) | 8.22 µM (inactive) | 2.05 µM (inactive) | 13.2 µM (inactive) | 16.6 µM (inactive) | 3.33 µM (inactive) | 15.7 µM (inactive) | 3.24 µM (inactive) | 12.2 µM (inactive) | – | 12.9 µM (inactive) | 15.9 µM (inactive) | 1.67 µM (inactive) | 7.46 µM (inactive) | 18.7 µM (inactive) | 2.22 µM (inactive) | 6.61 µM (inactive)
O=c1oc2c(O)c(O)cc3c(=O)oc4c(O)c(O)cc1c4c23 [ELLAGIC ACID] | 53.5 µM (inactive) | > 10 µM (inactive) | 92 µM (inactive) | 68.2 µM (inactive) | > 10 µM (inactive) | 57.4 µM (inactive) | > 10 µM (inactive) | 31 µM (inactive) | 47.9 µM (inactive) | 29.9 µM (inactive) | > 10 µM (inactive) | 78.2 µM (inactive) | 27.9 µM (inactive) | – | – | 31.6 µM (inactive) | – | – | –
NNC(=O)C(=O)N/N=C1\CCC(=O)CC1C(=O)CCC(=O)Nc1ccc(Cl)cc1 (stereo not given) | > 100 µM (inactive) | > 100 µM (inactive) | > 100 µM (inactive) | > 100 µM (inactive) | 72.4 µM (inactive) | > 100 µM (inactive) | > 100 µM (inactive) | – | > 100 µM (inactive) | 95.3 µM (inactive) | > 100 µM (inactive) | > 100 µM (inactive) | > 100 µM (inactive) | – | – | > 100 µM (inactive) | – | – | –
FC(F)(F)c1cccc(C2SCc3nc4ccccc4n32)c1 (stereo not given) | – | > 100 µM (inactive) | 38.9 µM (inactive) | 56.1 µM (inactive) | 33.1 µM (inactive) | 73.3 µM (inactive) | > 100 µM (inactive) | 2.41 µM (inactive) | 9.79 µM (inactive) | 56 µM (inactive) | 65.9 µM (inactive) | > 100 µM (inactive) | 62.7 µM (inactive) | – | – | – | – | – | –
COc1ccc(/C=C2/C(C)=NN(c3cccc(Cl)c3)/C2=N/c2nc3ccccc3s2)cc1 | 20.4 µM (inactive) | 22.7 µM (inactive) | 19.2 µM (inactive) | – | 12 µM (inactive) | 40.2 µM (inactive) | – | 20.9 µM (inactive) | 16.9 µM (inactive) | 20.2 µM (inactive) | 20.6 µM (inactive) | 22.3 µM (inactive) | 20.7 µM (inactive) | 34 µM (inactive) | 19 µM (inactive) | 37.4 µM (inactive) | 24.7 µM (inactive) | 21.7 µM (inactive) | 28.8 µM (inactive)
Cc1ccc(S(=O)(=O)N(CC(O)COc2ccccc2)c2ccc(F)cc2F)cc1 (stereo not given) | 15.8 µM (inactive) | 16.5 µM (inactive) | – | 12.9 µM (inactive) | 11.9 µM (inactive) | 14.7 µM (inactive) | 16 µM (inactive) | 0.122 µM (active) | 13.9 µM (inactive) | 15.3 µM (inactive) | 15.8 µM (inactive) | 15.5 µM (inactive) | 14.4 µM (inactive) | 17.2 µM (inactive) | 12.8 µM (inactive) | 11.6 µM (inactive) | 17.3 µM (inactive) | 15.5 µM (inactive) | –
CCCCCC(O)(CCCCC)CCCCCCCCC1=C(O)C(=O)c2ccc(=O)[nH]c2C1=O | 8.85 µM (inactive) | 8 µM (inactive) | 4.34 µM (inactive) | 5.41 µM (inactive) | 9.38 µM (inactive) | 13.4 µM (inactive) | 3.75 µM (inactive) | 13.3 µM (inactive) | 2.61 µM (inactive) | 4.23 µM (inactive) | 8.32 µM (inactive) | 3.06 µM (inactive) | 4.72 µM (inactive) | – | – | 1.87 µM (inactive) | – | – | –
C=C1C2CC(OC(C)=O)C3(C)C(c4ccoc4)OC(=O)[C@@H](O)[C@]13OC1C[C@H](OC(C)=O)C(C)(C)[C@H](C(O)C(=O)OC)[C@]12C (stereo not given in full) | > 100 µM (inactive) | > 100 µM (inactive) | > 100 µM (inactive) | > 100 µM (inactive) | – | > 100 µM (inactive) | – | 4.17 µM (inactive) | > 100 µM (inactive) | > 100 µM (inactive) | > 100 µM (inactive) | > 100 µM (inactive) | > 100 µM (inactive) | – | – | > 100 µM (inactive) | – | – | –
COC1=C(C)C(=O)C2C(C1=O)C(c1ccc(OC)c(OC)c1)[C@H]2C (stereo not given in full) | > 100 µM (inactive) | > 100 µM (inactive) | – | > 100 µM (inactive) | > 100 µM (inactive) | > 100 µM (inactive) | > 100 µM (inactive) | > 100 µM (inactive) | > 100 µM (inactive) | > 100 µM (inactive) | > 100 µM (inactive) | > 100 µM (inactive) | > 100 µM (inactive) | – | – | > 100 µM (inactive) | – | – | –

Source: ChEMBL document CHEMBL1201862, “PubChem BioAssay data set” (2004)
